PMC10212518 (Biochemical Journal, 2023)

Columns and labels:
wild-type MDF cells = experiment: FACS cell death assay (PI uptake by flow cytometry) after necroptotic stimulus; type: cell-based, mouse; settings: for inhibition of TSQ-induced necroptosis (PI uptake, flow cytometry): TSQ 24 h, control comparison at concentrations >1 µM; for inhibition of TSZ-induced necroptosis (PI uptake, flow cytometry): TSZ 24 h
Procedure: In the first protocol, WT MDF cells were seeded at 1.0 × 10^5 cells per well in 24-well plates and allowed to settle for 4 h at 37°C 10% CO2. […] After 24 h, cells were harvested, stained with 1 µg/ml propidium iodide (PI; Sigma–Aldrich) and PI positive cells were quantified by flow cytometry on a BD FACSCalibur instrument. In the second protocol, WT MDF cells were seeded at 5.0 × 10^4 cells in 500 µl per well in 24-well plates (Falcon, cat #353047) and allowed to settle for 24 h at 37°C 10% CO2. […] For all compounds and reagents, 0.5 µl of 1000× stocks were used. Cells were harvested, stained with 2 µg/ml propidium iodide (PI; Sigma–Aldrich) and PI positive cells were quantified by flow cytometry on a BD FACSCalibur instrument.

[1] = test system: RIPK3 phosphorylation in MDF cells; experiment: Cellular phosphorylation assay, Western blot of phospho-RIPK3; type: cell-based, mouse; settings: 10 µM, 2 h pre-treatment; TSI 2 h; wild-type MDF cells
Procedure: (§1) WT, Ripk1^−/−Mlkl^−/− and Ripk3^−/− MDF cell lines were seeded at 3.0 × 10^5 cells in 1 ml per well in 12-well plates (Corning, cat #3512) and allowed to settle for 24 h at 37°C 10% CO2. WT cells were treated with DMSO alone or compounds (1 µM or 10 µM), as specified, for 2 h. Ripk1^−/−Mlkl^−/− and Ripk3^−/− cells were left untreated. Cells were stimulated with TSI to induce phosphorylation of RIPK1 and RIPK3, or left unstimulated, for 2 h. For all compounds and reagents, 1 µl of 1000× stocks were used. Cells were harvested, washed with 500 µl DPBS (Gibco) and lysed in 25 µl of ice-cold RIPA buffer (25 mM Tris–HCl pH 7.5, 150 mM NaCl, 1% v/v Nonidet P-40, 1% w/v Na Deoxycholate, 0.1% w/v SDS) containing cOmplete EDTA-free Protease Inhibitor Cocktail (Roche), PhosSTOP Phosphatase Inhibitor Cocktail (Roche) and benzonase nuclease (Sigma–Aldrich) for 30 min on ice. Whole cell lysates were stored at −80°C until protein quantification, SDS–PAGE and Western blots were performed. Briefly, whole cell lysates were thawed on ice then quantified using the BCA Protein Assay with bicinchoninic acid solution (Sigma–Aldrich) and copper sulfate solution (Sigma–Aldrich). NuPAGE LDS Sample Buffer (Invitrogen) containing TCEP (Sigma–Aldrich) was added to the whole cell lysates to obtain 20 µg protein in 20 µl total volume per sample. Samples were heated at 95°C for 10 minutes and 20 µl of each sample was run on NuPAGE 4–12% Bis-Tris 1.0 mm × 12-well Mini Gels (Invitrogen) using NuPAGE MES SDS Running Buffer (Invitrogen) along with the Precision Plus Kaleidoscope Prestained Protein Standard (Bio-Rad). Western blots were performed according to the Western Blotting General Procedure above.

[2] = molecular target: T1, endogenous mouse RIPK3 in MDF cells (Mus musculus, UniProt Q9QZL0); experiment: Cellular Thermal Shift Assay (CETSA); type: binding; settings: 20 µM
T1 construct: endogenous in cells; host or cells: wild-type mouse dermal fibroblasts (MDF)
T1 sequence (Q9QZL0 whole entry): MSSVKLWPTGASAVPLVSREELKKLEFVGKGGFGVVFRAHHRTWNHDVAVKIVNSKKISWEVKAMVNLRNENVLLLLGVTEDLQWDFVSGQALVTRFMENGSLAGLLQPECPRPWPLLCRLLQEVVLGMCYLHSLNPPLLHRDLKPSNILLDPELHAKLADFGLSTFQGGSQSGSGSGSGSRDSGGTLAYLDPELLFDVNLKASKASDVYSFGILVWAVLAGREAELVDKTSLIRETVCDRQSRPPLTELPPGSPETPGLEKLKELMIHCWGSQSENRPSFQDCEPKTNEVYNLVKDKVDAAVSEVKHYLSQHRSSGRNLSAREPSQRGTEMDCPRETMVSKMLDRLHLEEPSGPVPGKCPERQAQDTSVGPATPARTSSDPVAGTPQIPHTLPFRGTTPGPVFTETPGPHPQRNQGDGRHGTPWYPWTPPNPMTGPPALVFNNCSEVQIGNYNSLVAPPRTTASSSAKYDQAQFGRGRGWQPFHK
Procedure: (§2) CETSA was performed as previously described. Briefly, Mlkl^−/− MDF cells were treated with doxycycline (20 ng/ml) for 4 h to induce expression of the MLKL Q343A mutant and then seeded to obtain 1.5 × 10^6 cells per temperature point. WT MDF or U937 cells were seeded to obtain 1.5 × 10^6 cells per temperature point. Cells were treated with DMSO or compounds (20 µM), as specified, for 1 h at 37°C 10% CO2. Cells were spun down, washed with 5 ml DPBS (Gibco), resuspended in DPBS containing cOmplete EDTA-free Protease Inhibitor Cocktail (Roche) and aliquoted into 100 µl samples per temperature point in PCR tubes. Live cell suspensions were heated across a temperature gradient (below) for 3 min in a T100 Thermal Cycler (Bio-Rad), cooled at room temperature for 3 min, snap frozen in liquid N2 and stored at −80°C overnight.
(§3) Samples were freeze-thawed once to lyse the cells. Soluble protein was separated from precipitated protein via centrifugation at 17 000×g for 30 min at 4°C. Soluble protein fractions were resolved by SDS–PAGE and analysed by Western blot. Briefly, 10 µl of each soluble protein sample was added to 10 µl of NuPAGE LDS Sample Buffer (Invitrogen) containing TCEP (Sigma–Aldrich). Samples were heated at 95°C for 10 min and then 15 µl of each sample was run on a gel along with the Precision Plus Kaleidoscope Prestained Protein Standard (Bio-Rad), using either NuPAGE 4–12% Bis-Tris 1.0 mm × 20-well Midi Gels (Invitrogen) with NuPAGE MES SDS Running Buffer (Invitrogen), or 4–15% Criterion TGX Stain-Free 26 well 15 µl Protein Gels (Bio-Rad) with Tris/Glycine Buffer (Bio-Rad). Western blots were performed according to the Western Blotting General Procedure above.

[3] = test system: RIPK1 phosphorylation in MDF cells; experiment: Cellular phosphorylation assay, Western blot of phospho-RIPK1; type: cell-based, mouse; settings: 10 µM, 2 h pre-treatment; TSI 2 h; wild-type MDF cells
Procedure: as §1

[4] = molecular target: T2, endogenous mouse RIPK1 in MDF cells (Mus musculus, UniProt Q60855); experiment: Cellular Thermal Shift Assay (CETSA); type: binding; settings: 20 µM
T2 construct: endogenous in cells; host or cells: wild-type mouse dermal fibroblasts (MDF)
T2 sequence (Q60855 1-656): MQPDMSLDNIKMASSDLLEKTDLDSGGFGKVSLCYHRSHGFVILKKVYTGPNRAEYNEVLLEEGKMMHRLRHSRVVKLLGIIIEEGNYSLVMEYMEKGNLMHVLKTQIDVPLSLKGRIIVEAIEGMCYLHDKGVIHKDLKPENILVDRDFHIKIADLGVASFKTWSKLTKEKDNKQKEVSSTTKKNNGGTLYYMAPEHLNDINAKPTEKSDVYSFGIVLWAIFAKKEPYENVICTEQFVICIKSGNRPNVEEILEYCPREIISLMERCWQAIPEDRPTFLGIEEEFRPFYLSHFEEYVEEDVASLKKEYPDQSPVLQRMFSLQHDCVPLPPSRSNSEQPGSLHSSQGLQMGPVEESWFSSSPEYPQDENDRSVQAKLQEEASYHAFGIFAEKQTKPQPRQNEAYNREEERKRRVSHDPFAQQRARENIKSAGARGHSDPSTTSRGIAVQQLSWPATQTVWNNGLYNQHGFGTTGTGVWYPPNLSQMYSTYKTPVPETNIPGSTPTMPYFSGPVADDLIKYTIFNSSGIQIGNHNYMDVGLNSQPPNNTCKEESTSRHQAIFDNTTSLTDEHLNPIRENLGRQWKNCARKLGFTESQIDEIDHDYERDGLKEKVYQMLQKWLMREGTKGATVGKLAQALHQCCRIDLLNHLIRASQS
Procedure: as §2, §3

Row | effect on thermal stability of endogenous mouse RIPK1 (CETSA) [4] | SMILES | inhibition of TSQ-induced necroptosis (PI uptake, flow cytometry) (wild-type MDF cells) | inhibition of TSZ-induced necroptosis (PI uptake, flow cytometry) (wild-type MDF cells) | effect on RIPK3 phosphorylation (phospho-RIPK3 signal, Western blot) [1] | effect on thermal stability of endogenous mouse RIPK3 (CETSA) [2] | effect on RIPK1 phosphorylation (phospho-RIPK1 signal, Western blot) [3]
1 | – | Cc1cc(-c2cnc(N)c3c(-c4ccc5scnc5c4)csc23)n(C)n1 [GSK′843] | protection was comparable | more potent protection with the control inhibitors compared with ABT-869 | – | – | –
2 | – | CC(C)S(=O)(=O)c1ccc2nccc(Nc3ccc4scnc4c3)c2c1 [GSK′872] | protection was comparable | more potent protection with the control inhibitors compared with ABT-869 | almost completely inhibited | had no effect on RIPK3 stability | –
3 | increased the thermal stability | CN1C(=O)NC(Cc2c[nH]c3c(Cl)cccc23)C1=O (centres unmarked) [Nec-1s] | – | – | – | – | almost completely ablated RIPK1 phosphorylation
